# According to PMC12460146, “Impact of metabolic enzyme activity variability on dabrafenib disposition” (Frontiers in Pharmacology, 2025):
# Counter-ions that a name gives are not always drawn.
# Test system: rat liver microsomes (RLM)
# Test: Drug interaction screening of 48 drugs on dabrafenib metabolism in RLM
# Assay type: in vitro ADME
# Conditions: 100 µM
# Procedure: The 200 µL incubation system contained 0.1 M Tris-HCl (pH = 7.6), 0.5 mg/mL RLM or HLM, 1 mM NADPH, and dabrafenib. After pre-incubation (37 °C, 5 min), reactions were initiated by adding 1 mM NADPH and terminated after 40 min with 300 µL ice-cold acetonitrile. Carbamazepine (100 ng/mL) was added as the IS. Samples were vortex-mixed (2 min), centrifuged (17,000 × g, 10 min, 4 °C), and supernatants analyzed by UPLC-MS/MS. Hydroxy-dabrafenib concentrations were quantified via UPLC-MS/MS. Reaction velocity (V) was calculated as hydroxy-dabrafenib formation rate (pmoL/min/µg protein).
# For drug interaction screening, inhibitors (100 µM final concentration) were screened in the standard incubation system.
# The concentrations of dabrafenib and hydroxy-dabrafenib were quantified by UPLC-MS/MS. Chromatographic separation was performed on a Waters Acquity UPLC BEH C18 column (2.1 mm × 50 mm, 1.7 µm particle size) maintained at 40 °C. […] Total run time was 2 min. Detection employed a Waters Xevo TQS triple quadrupole mass spectrometer (Milford, MA, United States) operated in positive-ion multiple reaction monitoring mode.
row,Compound,Relative activity (% of control)
1,Troagliptin succinate,117.88% ± 0.02
2,CNCC[C@H](Oc1cccc2ccccc12)c1cccs1 [Duloxetine],40.82% ± 0.01

# Same assay, conditions: RLM; inhibitor 100 µM; dabrafenib at RLM Km concentration
row,Compound,inhibition of dabrafenib metabolism [%]
1,CCCCc1oc2ccc(NS(C)(=O)=O)cc2c1C(=O)c1ccc(OCCCN(CCCC)CCCC)cc1 [Dronedarone hydrochloride],> 70
2,Cc1c(OCC(F)(F)F)ccnc1C[S+]([O-])c1nc2ccccc2[nH]1 (centres unmarked) [Lansoprazole],> 70
3,O=c1ccc2ccc(OCCCCN3CCN(c4cccc5sccc45)CC3)cc2[nH]1 [Brexpiprazole],> 70
4,Cc1ccc(Sc2ccccc2N2CCNCC2)c(C)c1 [Vortioxetine],> 70
5,CNCCC(Oc1ccc(C(F)(F)F)cc1)c1ccccc1 (centres unmarked) [Fluoxetine],> 70

# Same assay, conditions: RLM; inhibitor 100 µM; dabrafenib at RLM Km concentration; hydroxy-dabrafenib formation
row,Compound,Relative activity (% of control)
1,COc1ccc2c(c1)[C@]13CCCC[C@@H]1[C@H](C2)N(C)CC3 [Dextromethorphan hydrobromide],79.28% ± 0.03
2,COc1ccc(Cl)cc1C(=O)NCCc1ccc(S(=O)(=O)NC(=O)NC2CCCCC2)cc1 [Glybenzcyclamide],78.13% ± 0.03
3,CC(NC(C)(C)C)C(=O)c1cccc(Cl)c1 (centres unmarked) [Bupropion],30.23% ± 0.06
4,O=c1n(CCCN2CCN(c3cccc(Cl)c3)CC2)nc2ccccn12 [Trazodone],49.14% ± 0.01
5,CCC(=O)NS(=O)(=O)c1ccc(-c2c(-c3ccccc3)noc2C)cc1 [Parecoxib],72.34% ± 0.11
6,COCCc1ccc(OCC(O)CNC(C)C)cc1 (centres unmarked) [Metoprolol Tartrate],59.44% ± 0.08
7,CC(C)[C@H]1CC[C@H](C(=O)N[C@H](Cc2ccccc2)C(=O)O)CC1 [Nateglinide],108.55% ± 0.06
8,CC(C(=O)O)c1ccc(CC2CCCC2=O)cc1 (centres unmarked) [Loxoprofen],57.60% ± 0.04
9,Cc1cnc(NC(=O)C2=C(O)c3ccccc3S(=O)(=O)N2C)s1 [Meloxicam sodium],61.62% ± 0.06
10,CN1CCOC(c2ccccc2)c2ccccc2C1 (centres unmarked) [Nefopam hydrochloride],52.87% ± 0.15
11,CN(C)CCOC(c1ccccc1)c1ccccc1 [Diphenhydramine hydrochloride],90.45% ± 0.11
12,N#C[C@@H]1C[C@@H]2C[C@@H]2N1C(=O)[C@@H](N)C12CC3CC(CC(O)(C3)C1)C2 [Saxagliptin hydrochloride],114.45% ± 0.02
13,CN(C)C(=N)N=C(N)N [Metformin hydrochloride],109.07% ± 0.01
14,CCCCc1oc2ccc(NS(C)(=O)=O)cc2c1C(=O)c1ccc(OCCCN(CCCC)CCCC)cc1 [Dronedarone hydrochloride],20.07% ± 0.02
15,CN(C)CCCN1c2ccccc2CCc2ccc(Cl)cc21 [Clomipramine],54.39% ± 0.08
16,Cc1ccc(-c2cc(C(F)(F)F)nn2-c2ccc(S(N)(=O)=O)cc2)cc1 [Celecoxib],33.72% ± 0.13
17,Cc1c(OCC(F)(F)F)ccnc1C[S+]([O-])c1nc2ccccc2[nH]1 (centres unmarked) [Lansoprazole],27.68% ± 0.01
18,CN(CCOc1ccc(CC2SC(=O)NC2=O)cc1)c1ccccn1 (centres unmarked) [Rosiglitazone maleate],64.26% ± 0.004
19,CN(C)CCC=C1c2ccccc2CCc2ccccc21 [Amitriptyline],38.88% ± 0.04
20,C=C[C@H]1C[N@@]2CC[C@H]1C[C@@H]2[C@@H](O)c1ccnc2ccc(OC)cc12 [Quinidine],60.50% ± 0.14
21,COc1ccc(C(CN(C)C)C2(O)CCCCC2)cc1 (centres unmarked) [Venlafaxine],54.22% ± 0.004

row,Compound,Relative activity (% of control)
1,CN[C@H]1CC[C@@H](c2ccc(Cl)c(Cl)c2)c2ccccc21 [Sertraline],29.92% ± 0.05
2,C[C@]12CCC(=O)C=C1CC[C@@H]1[C@@H]2[C@@H](O)C[C@@]2(C)[C@H]1CC[C@]2(O)C(=O)CO [Hydrocortisone],70.48% ± 0.08
3,O=c1ccc2ccc(OCCCCN3CCN(c4cccc5sccc45)CC3)cc2[nH]1 [Brexpiprazole],29.48% ± 0.05
4,COc1ccc2cccc(CCNC(C)=O)c2c1 [Agomelatine],36.20% ± 0.08
5,Cc1nc2n(c(=O)c1CCN1CCC(c3noc4cc(F)ccc34)CC1)CCCC2O (centres unmarked) [Paliperidone],101.95% ± 0.03
6,CCC1=C(C)CN(C(=O)NCCc2ccc(S(=O)(=O)NC(=O)N[C@H]3CC[C@H](C)CC3)cc2)C1=O [Glimepiride],100.17% ± 0.01
7,Cc1cnc(C(=O)NCCc2ccc(S(=O)(=O)NC(=O)NC3CCCCC3)cc2)cn1 [Glipizide],106.96% ± 0.06
8,Cc1ccc(Sc2ccccc2N2CCNCC2)c(C)c1 [Vortioxetine],11.14% ±0.001
9,CN1C(C(=O)Nc2ccccn2)=C(O)c2sc(Cl)cc2S1(=O)=O [Lornoxicam],65.67% ± 0.04
10,CN1CCN2c3ncccc3Cc3ccccc3C2C1 (centres unmarked) [Mirtazapine],50.53% ±0.001
11,CN/C(=N/CCSCc1nc[nH]c1C)NC#N [Cimetidine],84.61% ± 0.03
12,CC(C(=O)O)c1ccc(-c2ccccc2)c(F)c1 (centres unmarked) [Flurbiprofen],59.91% ± 0.03
13,C[C@@H]1C[C@H]2[C@@H]3CCC4=CC(=O)C=C[C@]4(C)[C@@]3(F)[C@@H](O)C[C@]2(C)[C@@]1(O)C(=O)CO [Dexamethasone],59.84% ± 0.07
14,CN(C)CCCC1(c2ccc(F)cc2)OCc2cc(C#N)ccc21 (centres unmarked) [Citalopram],59.29% ± 0.07
15,CC(=O)Nc1ccc(O)cc1 [Acetaminophen],90.08% ± 0.04
16,CN1[C@@H]2CC[C@H]1C[C@@H](OC(=O)c1c[nH]c3ccccc13)C2 [Tropisetron],84.28% ± 0.07
17,COc1ccc2[nH]c([S+]([O-])Cc3ncc(C)c(OC)c3C)nc2c1 (centres unmarked) [Omeprazole],46.24% ±0.04
18,O=C(O)Cc1ccccc1Nc1c(Cl)cccc1Cl [Diclofenac sodium],69.82% ± 0.04
19,CNCCC(Oc1ccc(C(F)(F)F)cc1)c1ccccc1 (centres unmarked) [Fluoxetine],18.63% ±0.04
20,COc1ccc2c(c1)c(CC(=O)O)c(C)n2C(=O)c1ccc(Cl)cc1 [Indomethacin],60.51% ± 0.004

# Test system: not given
# Test: not given
# Parameters: method as in Puszkiel et al., 2019; Balakirouchenane et al., 2021
# Conditions: ref Puszkiel et al., 2019; Balakirouchenane et al., 2021; cited from earlier work
Compound,increase of dabrafenib Cmax on ketoconazole coadministration [%],increase of dabrafenib area under curve (AUC) on ketoconazole coadministration [%]
CC(=O)N1CCN(c2ccc(OCC3COC(Cn4ccnc4)(c4ccc(Cl)cc4Cl)O3)cc2)CC1 (centres unmarked) [ketoconazole],33,71
